Consider three compounds from patent publication US7175850B2, “Formulation for topical non-invasive application in vivo” (Idea AG, priority 1998, dated 2007).

Data set [1] in a line: Biodistribution after epicutaneous application (blood, skin). Format: in vivo, mice. As for the experimental part:
Drug in the Carrier (Transfersome) Suspensions. The formulations used in the biodistribution studies were labelled with the tritiurated corticosteroids purchased from Amersham or ICN. Preparation of the formulations for the use in animals was done by dissolving all lipoids in methanol/chloroform (1/1 v/v) in the appropriate amounts and preparing a dry mixed lipid film under vacuum (≦10 Pa;≧12 h). The use of potentially harmful organic solvents or drying was entirely avoided in the manufacturing of human medications.
In vivo Experiments mainly involved 8–12 weeks old NMRI mice which were kept under standard laboratory conditions (3–5 per suspending cage; standard chew and water ad libitum; 12 h light/dark regime). Stressful or painful manipulations were always carried out under general injection anesthesia.
Biodistribution. The hair at the chosen skin site was trimmed with a pair of scissors to the length of ≦2 mm one day before experimentation. The precise application site on the upper back was marked and the appropriate amount (0.5 μL to 25 μL) and drug formulation was applied with a micro-pipette on the skin. After uniform distribution with the side of the same pipette tip, the application was left to dry.
Blood samples (20 μL) were taken from the tail end with a glass capillary. After 8 hours the animals were killed by heart puncture and the treated skin area was undermined and carefully excised. The outermost layers of the stratum corneum were collected by five tape-strippings. Subsequently, the residual skin tissue and other organ samples were prepared, destained and used for radioactivity counting. For the experiments with porcine skin, […] of full thickness organ was excised and fixed on a wet tissue. Several test areas of 1 cm^2 were then marked and treated further as in vivo.

The nature of data set [2]: Ratio of corticosteroid concentration in blood and inner skin, calculated for humans.
Experimental: The area dose will normally be between 0.1 μg cm^−2 and 1 μg cm^−2, for the high and low potency drugs, respectively.

Take `C[C@@H]1C[C@H]2[C@@H]3CCC4=CC(=O)C=C[C@]4(C)[C@@]3(F)[C@@H](O)C[C@]2(C)[C@@]1(O)C(=O)CO` [Dexamethasone, dexamethasone]: the “Ratio of corticosteroid concentration in the blood and in the 'inner skin' (mouse)” value (“Ratio of corticosteroid concentration … (mouse)” below) in data set [1] (dose 0.5 μg/cm^−2, measured) is recorded as 0; in data set [1] (dose 4.9 μg/cm^−2, measured), 0.1; in data set [1] (dose 49.5 μg/cm^−2, measured), 0.25.
On to `CC1(C)O[C@@H]2C[C@H]3[C@@H]4CCC5=CC(=O)C=C[C@]5(C)[C@@]4(F)[C@@H](O)C[C@]3(C)[C@]2(C(=O)CO)O1` [Triamcinolone-acetonide, triamcinolone-acetonide], for which the “Ratio of corticosteroid concentration … (mouse)” value in data set [1] (dose 1.3 μg/cm^−2, measured) was 0.02; in data set [1] (dose 13.2 μg/cm^−2, measured), 0.04; in data set [1] (dose 20.6 μg/cm^−2, measured), 0.03. Besides, the “Ratio of corticosteroid concentration in the blood and in the 'inner skin' (human)” value was 0.00007 in data set [2] (dose 1.3 μg/cm^−2), 0.00011 in data set [2] (dose 13.2 μg/cm^−2) and 0.0001 in data set [2] (dose 20.6 μg/cm^−2).
For `C[C@]12CCC(=O)C=C1CC[C@@H]1[C@@H]2[C@@H](O)C[C@@]2(C)[C@H]1CC[C@]2(O)C(=O)CO` [Hydrocortisone, hydrocortisone], the “Ratio of corticosteroid concentration … (mouse)” value was 0 in data set [1] (dose 0.5 μg/cm^−2, measured); 0.012 in data set [1] (dose 4.9 μg/cm^−2, measured); 0.015 in data set [1] (dose 49.5 μg/cm^−2, measured).
